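Each compound was tested at five concentrations against cells in 96-well plates for 48 hours. GI50: concentration for 50% inhibition of growth. TGI is the concentration that stops growth completely.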
Assays:
Assay in all cases: growth of human tumour cells (NCI), 48 h
HS 578T breast = tested on: HS 578T breast
SF-295 CNS = tested on: SF-295 CNS
RXF 393 renal = tested on: RXF 393 renal
DU-145 prostate = tested on: DU-145 prostate
PC-3 prostate = tested on: PC-3 prostate
MDA-MB-231 breast = tested on: MDA-MB-231 breast
SF-539 CNS = tested on: SF-539 CNS
T-47D breast = tested on: T-47D breast
NCI-H522 lung = tested on: NCI-H522 lung
CAKI-1 renal = tested on: CAKI-1 renal
OVCAR-5 ovarian = tested on: OVCAR-5 ovarian
MOLT-4 leukemia = tested on: MOLT-4 leukemia
LOX IMVI melanoma = tested on: LOX IMVI melanoma
786-0 renal = tested on: 786-0 renal
SW-620 colon = tested on: SW-620 colon
CCRF-CEM leukemia = tested on: CCRF-CEM leukemia
SK-MEL-2 melanoma = tested on: SK-MEL-2 melanoma
OVCAR-4 ovarian = tested on: OVCAR-4 ovarian
IGROV1 ovarian = tested on: IGROV1 ovarian
COLO 205 colon = tested on: COLO 205 colon
MDA-MB-435 = tested on: MDA-MB-435
K-562 leukemia = tested on: K-562 leukemia
HT29 colon = tested on: HT29 colon
SN12C renal = tested on: SN12C renal
UACC-62 melanoma = tested on: UACC-62 melanoma
NCI/ADR-RES ovarian = tested on: NCI/ADR-RES ovarian
HOP-62 NSCLC = tested on: HOP-62 NSCLC
HOP-92 NSCLC = tested on: HOP-92 NSCLC
UACC-257 melanoma = tested on: UACC-257 melanoma
OVCAR-3 ovarian = tested on: OVCAR-3 ovarian
HCC-2998 colon = tested on: HCC-2998 colon
HCT-15 colon = tested on: HCT-15 colon
UO-31 renal = tested on: UO-31 renal
MCF7 breast = tested on: MCF7 breast
HCT-116 colon = tested on: HCT-116 colon
OVCAR-8 ovarian = tested on: OVCAR-8 ovarian
M14 melanoma = tested on: M14 melanoma
SK-MEL-28 melanoma = tested on: SK-MEL-28 melanoma
SR leukemia = tested on: SR leukemia
SK-OV-3 ovarian = tested on: SK-OV-3 ovarian
BT-549 breast = tested on: BT-549 breast
ACHN renal = tested on: ACHN renal
U251 CNS = tested on: U251 CNS
TK-10 renal = tested on: TK-10 renal
SK-MEL-5 melanoma = tested on: SK-MEL-5 melanoma
MALME-3M melanoma = tested on: MALME-3M melanoma
HL-60(TB) leukemia = tested on: HL-60(TB) leukemia
KM12 colon = tested on: KM12 colon
RPMI-8226 leukemia = tested on: RPMI-8226 leukemia
NCI-H226 lung = tested on: NCI-H226 lung
SNB-75 CNS = tested on: SNB-75 CNS
SF-268 CNS = tested on: SF-268 CNS
SNB-19 CNS = tested on: SNB-19 CNS
EKVX NSCLC = tested on: EKVX NSCLC
NCI-H460 lung = tested on: NCI-H460 lung
A498 renal = tested on: A498 renal

## CN(C)CCCNc1c2ccc(Cl)cc2nc2c1oc1ccccc12
HS 578T breast
  GI50: 3.53 µM
  TGI: 22.2 µM
SF-295 CNS
  GI50: 3.41 µM
  TGI: 15.3 µM
RXF 393 renal
  GI50: 1.64 µM
  TGI: 3.76 µM
DU-145 prostate
  GI50: 3.49 µM
  TGI: 79.2 µM
PC-3 prostate
  GI50: 2.16 µM
  TGI: 6.13 µM
MDA-MB-231 breast
  GI50: 2.44 µM
  TGI: 8.61 µM
SF-539 CNS
  GI50: 1.76 µM
  TGI: 3.39 µM
T-47D breast
  GI50: 4.84 µM
  TGI: 23.2 µM
NCI-H522 lung
  GI50: 2.18 µM
  TGI: 7.89 µM
CAKI-1 renal
  GI50: 1.59 µM
  TGI: 4.39 µM
OVCAR-5 ovarian
  GI50: 2.46 µM
  TGI: 7.81 µM
MOLT-4 leukemia
  GI50: 0.676 µM
  TGI: 13.2 µM
LOX IMVI melanoma
  GI50: 1.86 µM
  TGI: 4.1 µM
786-0 renal
  GI50: 3.2 µM
  TGI: 14.2 µM
SW-620 colon
  GI50: 1.24 µM
  TGI: 10.1 µM
CCRF-CEM leukemia
  GI50: 2.57 µM
  TGI: 10.3 µM
SK-MEL-2 melanoma
  GI50: 3.29 µM
  TGI: 12.6 µM
OVCAR-4 ovarian
  GI50: 2.12 µM
  TGI: 6.89 µM
IGROV1 ovarian
  GI50: 2.77 µM
  TGI: 7.49 µM
COLO 205 colon
  GI50: 1.51 µM
  TGI: 4.03 µM
MDA-MB-435
  GI50: 1.65 µM
  TGI: 3.32 µM
K-562 leukemia
  GI50: 2.02 µM
  TGI: 11.7 µM
HT29 colon
  GI50: 1.34 µM
  TGI: 3.58 µM
SN12C renal
  GI50: 2.5 µM
  TGI: 11.6 µM
UACC-62 melanoma
  GI50: 5.2 µM
  TGI: 19.6 µM
NCI/ADR-RES ovarian
  GI50: 1.91 µM
  TGI: 12.6 µM
HOP-62 NSCLC
  GI50: 2.61 µM
  TGI: 9.05 µM
HOP-92 NSCLC
  GI50: 1.34 µM
  TGI: 5.13 µM
UACC-257 melanoma
  GI50: 3.79 µM
  TGI: 15.2 µM
OVCAR-3 ovarian
  GI50: 3.45 µM
  TGI: 15.6 µM
HCC-2998 colon
  GI50: 1.77 µM
  TGI: 4.18 µM
HCT-15 colon
  GI50: 2.35 µM
  TGI: 11.1 µM
UO-31 renal
  GI50: 2.09 µM
  TGI: 12.8 µM
MCF7 breast
  GI50: 1.77 µM
  TGI: 6.02 µM
HCT-116 colon
  GI50: 1.42 µM
  TGI: 8.19 µM
OVCAR-8 ovarian
  GI50: 2.42 µM
  TGI: 7.87 µM
M14 melanoma
  GI50: 1.69 µM
  TGI: 3.45 µM
SK-MEL-28 melanoma
  GI50: 4.43 µM
  TGI: 16.3 µM
SR leukemia
  GI50: 2.34 µM
  TGI: 10.3 µM
SK-OV-3 ovarian
  GI50: 3.04 µM
  TGI: 11.2 µM
BT-549 breast
  GI50: 4.12 µM
  TGI: 14.4 µM
ACHN renal
  GI50: 1.78 µM
  TGI: 12.2 µM
U251 CNS
  GI50: 2.69 µM
  TGI: 10.3 µM
TK-10 renal
  GI50: 4.19 µM
  TGI: 22.1 µM
SK-MEL-5 melanoma
  GI50: 10.6 µM
  TGI: 23.8 µM
MALME-3M melanoma
  GI50: 3.1 µM
  TGI: 10.6 µM
HL-60(TB) leukemia
  GI50: 2.52 µM
  TGI: 8.94 µM
KM12 colon
  GI50: 2.76 µM
  TGI: 16.8 µM
RPMI-8226 leukemia
  GI50: 2.27 µM
  TGI: 5.94 µM
NCI-H226 lung
  GI50: 3.19 µM
  TGI: 11.9 µM
SNB-75 CNS
  GI50: 1.68 µM
  TGI: 4.66 µM
SF-268 CNS
  GI50: 2.54 µM
  TGI: 12.1 µM
SNB-19 CNS
  GI50: 3.37 µM
  TGI: 20.5 µM
EKVX NSCLC
  GI50: 3.51 µM
  TGI: 21.3 µM
NCI-H460 lung
  GI50: 1.64 µM
  TGI: 8.1 µM
A498 renal
  GI50: 7.55 µM
  TGI: 21.2 µM

Reference: PubChem BioAssay (NCI)
